The values below come from ChEMBL document CHEMBL5154823, “Amphiphilic cyclic peptide [W4KR5]-Antibiotics combinations as broad-spectrum antimicrobial agents” (Eur J Med Chem, 2022).

As usually defined, the MIC is the smallest concentration in the dilution series that meets the test's criterion for growth inhibition.

The source made the active and inactive calls. Where a SMILES comes first, the peptide text is derived from it.

In data set [1] the test system is Escherichia coli. As to the kind of experiment: Antibacterial activity against Escherichia coli ATCC 25922 assessed as vancomycin MIC incubated for 24 hrs by microbroth dilution assay. The data set is classed as functional.
The subject of data set [2] is Klebsiella pneumoniae. As to the kind of experiment: Synergistic antibacterial activity against Klebsiella pneumoniae ATCC BAA 1705 assessed as fractional inhibitory concentration index incubated for 24 hrs in presence of kanamycin by checkerboard assay. The data set is classed as functional.
Data set [3] has as its system Staphylococcus aureus. As to the kind of experiment: Synergistic antibacterial activity against methicillin resistant Staphylococcus aureus ATCC BAA -1556 assessed as fractional inhibitory concentration index incubated for 24 hrs in presence of daptomycin by checkerboard assay. The data set is classed as functional.
For data set [4], the system named is Escherichia coli. As to the kind of experiment: Synergistic antibacterial activity against Escherichia coli ATCC 25922 assessed as fractional inhibitory concentration index incubated for 24 hrs in presence of polymyxin B by checkerboard assay. The data set is classed as functional.
Data set [5] has as its system Escherichia coli. As to the kind of experiment: Antibacterial activity against Escherichia coli ATCC 25922 assessed as polymyxin B MIC incubated for 24 hrs by microbroth dilution assay. The data set is classed as functional. A general note: Dilution methods test growth across graded concentrations, often in twofold steps.
Data set [6] relates to Klebsiella pneumoniae. As to the kind of experiment: Antibacterial activity against Klebsiella pneumoniae ATCC 13883 assessed as reduction in microbial growth incubated for 24 hrs by microbroth dilution method. The data set is classed as functional.
Data set [7] concerns Klebsiella pneumoniae. As to the kind of experiment: Bactericidal activity against Klebsiella pneumoniae ATCC BAA 1705 assessed as decrease of bacterial growth at MIC by Time kill assay. The data set is classed as functional, organism-based.
Data set [8] deals with HEK293. As to the kind of experiment: Cytotoxicity against HEK293 cells assessed as effect on cell viability at 10 ug/ml incubated for 24 hrs by microplate reader analysis. The settings on record: human, hek293, 24 h, dose 10 µg/ml. The data set is classed as toxicity, cell-based.
Data set [9] concerns Pseudomonas aeruginosa. As to the kind of experiment: Bactericidal activity against Pseudomonas aeruginosa ATCC BAA 1744 assessed as reduction in colony formation at MIC measured after 18 hrs by Time kill assay. The data set is classed as functional, organism-based.

For `N=C(N)NCCC[C@@H]1NC(=O)[C@H](CCCNC(=N)N)NC(=O)[C@H](CCCNC(=N)N)NC(=O)[C@H](CCCNC(=N)N)NC(=O)[C@H](Cc2c[nH]c3ccccc23)NC(=O)[C@H](Cc2c[nH]c3ccccc23)NC(=O)[C@H](Cc2c[nH]c3ccccc23)NC(=O)[C@H](Cc2c[nH]c3ccccc23)NC(=O)[C@H](CCCCN)NC(=O)[C@H](CCCNC(=N)N)NC1=O` (cyclo(KWWWWRRRRR)), the MIC was 16 µg/mL in data set [1], 0.125 µg/mL in [5] and 16 µg/mL in [6]. The “fractional inhibitory concentration index (FICI)” value in data set [2] came out at 0.375; in data set [3] it was 0.5; in data set [4], 0.3125. The result in [7] and in data set [9] was Active. Besides, in data set [8], the Activity result is “Non-Toxic”.
